Data from US5628328A, “Method for measuring muscle mass” (priority 1995, dated 1997).
Where two headings read alike, the source gives them in different places.

Tests used:
[1] = cited from earlier work
[2] = sheep, cited from earlier work
[3] = set-up: species or system cattle; settings: bovine, in vivo
Source text: For cattle, the same three-compartment model was used as described herein. With respect to sheep, the model differs from that shown in FIG. 1 in that de novo production of 3-methylhistidine is shown in compartment 2 and additionally, exit from compartment 3 occurs as well as from compartment 1 into urine. With respect to swine, again, de novo production of 3-methylhistidine is shown in compartment 2, and exit to urine is from compartment 3.
Urinary 3-methylhistidine may be used in cattle and humans as an index of muscle protein breakdown but is invalid for use in pigs and lambs. […] Previously, in validating urinary 3-methylhistidineas an index of muscle proteolysis, researchers have injected ^14 C-3-methylhistidine intravenously and recovered the tracer in urine but have never described its decay in plasma. In constructing the 3-compartment model, we kept in mind known physiology of 3-methylhistidine. It has been established that there are pools of 3-methylhistidine in plasma, in other extracellular fluid pools, within muscle and in other tissues. […] Based on comparison of fits, a 3-compartment model was the best model to describe the metabolism of 3-methylhistidine; however, 2- and 4-compartment models as well as other configurations were also evaluated. […]

[4] = cited from earlier work; remark: listed apart in the source
[5] = dogs, cited from earlier work
[6] = cattle; cited from earlier work
[7] = Nishizawa et al.; cited from earlier work
[8] = set-up: species or system cattle; settings: bovine, in vivo; remark: listed apart in the source
Description: A minimal model using 4-5 measurements and one compartment rather than three was evaluated. In the minimal model the three pools of the 3-compartment model were combined to form one homogeneous pool of 3-methylhistidine, characterized by a de novo production into the body pool and one exit from the model. The kinetic data between 720 and 4320 min was used for the analysis; this time frame corresponds to apparent linear steady state portion of the decay curve. The limitation of the 1-compartment model is the lost ability to described the entire metabolism of 3-methylhistidine. Only the rate of proteolysis and a total pool size can be estimated. […] (Rathmacher, J. et al., "The use of compartmental models of 3-methylhistidine flux to evaluate skeletal muscle protein turnover in implanted steers," J. Anim. Sci. (1993) 71:135.) However, in cattle the minimal model estimates of 3-methylhistidine production were 30% higher, but the estimates of 3-methylhistidine production were highly correlated (r=0.93, P 0.0001).

[9] = rabbit; cited from earlier work
[10] = cattle, cited from earlier work
[11] = cited from earlier work; remark: listed apart in the source
[12] = set-up: species or system dogs; settings: dog, in vivo
Source text: Urinary 3-methylhistidine may be used in cattle and humans as an index of muscle protein breakdown but is invalid for use in pigs and lambs. […] Previously, in validating urinary 3-methylhistidineas an index of muscle proteolysis, researchers have injected ^14 C-3-methylhistidine intravenously and recovered the tracer in urine but have never described its decay in plasma. In constructing the 3-compartment model, we kept in mind known physiology of 3-methylhistidine. It has been established that there are pools of 3-methylhistidine in plasma, in other extracellular fluid pools, within muscle and in other tissues. The primary fate of 3-methylhistidine in humans, cattle and dogs is into urine (model exit from compartment 1), but in sheep and pigs there is a balenine pool in muscle that accumulates over time (model exit from compartment 3). The kinetic data were initially fitted to three exponential terms, indicating the possibility of a three compartment model. […] Model code 10 of SAAM was used and the models were based on a set of linear differential equations having constant coefficients. Based on comparison of fits, a 3-compartment model was the best model to describe the metabolism of 3-methylhistidine; however, 2- and 4-compartment models as well as other configurations were also evaluated. […]

Model 3-methylhistidine production versus urinary production [3]: qualitatively similar
3-methylhistidine production, minimal model above 3-compartment model [8]: 30%
Model 3-methylhistidine production versus urinary production [12]: qualitatively similar
SMILES: Cn1cnc(C[C@H](N)C(=O)O)c1 [3-methylhistidine]
3-methylhistidine excretion during exercise ([1]; humans): insignificant increase
3-methylhistidine excretion during recovery from exercise ([1]; humans): significant increase
Urinary excretion ([1]; man): quantitatively excreted in the urine
3-methylhistidine excreted in urine [2]: approximately 15%
Urinary excretion ([2]; retained in muscle as balenine): not quantitatively excreted in urine
3MH Production ([4]; pigs, n=20, from model): 7.2 µmol/kg/day
M1, compartment mass ([4]; pigs, n=20): 1110 nmol/kg
M2, compartment mass ([4]; pigs, n=20): 2857 nmol/kg
M3, compartment mass ([4]; pigs, n=20): 6151 nmol/kg
R03 mass transfer rate ([4]; pigs, n=20): 5.0 nmol/kg/min
R12 mass transfer rate ([4]; pigs, n=20): 247 nmol/kg/min
R21 mass transfer rate ([4]; pigs, n=20): 247 nmol/kg/min
R23 mass transfer rate ([4]; pigs, n=20): 32 nmol/kg/min
R32 mass transfer rate ([4]; pigs, n=20): 37 nmol/kg/min
Urinary excretion of total daily 3-methylhistidine produced ([4]; pigs): 1.5 %/d
L0,3 fractional transfer rate ([4]; swine, number 20): .0009 min⁻¹
L1,2 fractional transfer rate ([4]; swine, number 20): .09 min⁻¹
L2,1 fractional transfer rate ([4]; swine, number 20): .23 min⁻¹
L2,3 fractional transfer rate ([4]; swine, number 20): .006 min⁻¹
L3,2 fractional transfer rate ([4]; swine, number 20): .014 min⁻¹
Urinary 3MH loss ([4]; swine, number 20): 1 % of total
3MH Production ([5]; n=5, from model): 12 µmol/kg/day
M1, compartment mass ([5]; n=5): 3227 nmol/kg
M2, compartment mass ([5]; n=5): 7973 nmol/kg
M3, compartment mass ([5]; n=5): 9261 nmol/kg
R01 mass transfer rate ([5]; n=5): 9 nmol/kg/min
R12 mass transfer rate ([5]; n=5): 329 nmol/kg/min
R21 mass transfer rate ([5]; n=5): 319 nmol/kg/min
R23 mass transfer rate ([5]; n=5): 56 nmol/kg/min
R32 mass transfer rate ([5]; n=5): 56 nmol/kg/min
L0,1 fractional transfer rate ([5]; number 5): .02 min⁻¹
L1,2 fractional transfer rate ([5]; number 5): .06 min⁻¹
L2,1 fractional transfer rate ([5]; number 5): .11 min⁻¹
L2,3 fractional transfer rate ([5]; number 5): .008 min⁻¹
L3,2 fractional transfer rate ([5]; number 5): .006 min⁻¹
Urinary 3MH loss ([5]; number 5): 100 % of total
Urinary excretion [6]: quantitatively excreted in the urine
Contribution of skin and intestine to total body pool of 3-methylhistidine [7]: up to 10%
Urinary excretion [9]: quantitatively excreted in the urine
L2,1 fractional transfer rate ([10]; comparison): 0.18 min⁻¹
3MH Production ([10]; n=36, from model): 6.2 µmol/kg/day
M1, compartment mass ([10]; n=36): 806 nmol/kg
M2, compartment mass ([10]; n=36): 2106 nmol/kg
M3, compartment mass ([10]; n=36): 7803 nmol/kg
R01 mass transfer rate ([10]; n=36): 4.2 nmol/kg/min
R12 mass transfer rate ([10]; n=36): 107 nmol/kg/min
R21 mass transfer rate ([10]; n=36): 103 nmol/kg/min
R23 mass transfer rate ([10]; n=36): 9.6 nmol/kg/min
R32 mass transfer rate ([10]; n=36): 5.4 nmol/kg/min
L0,1 fractional transfer rate ([10]; number 39): .006 min⁻¹
L1,2 fractional transfer rate ([10]; number 39): .06 min⁻¹
L2,1 fractional transfer rate ([10]; number 39): .18 min⁻¹
L2,3 fractional transfer rate ([10]; number 39): .002 min⁻¹
L3,2 fractional transfer rate ([10]; number 39): .003 min⁻¹
Urinary 3MH loss ([10]; number 39): 100 % of total
Urinary excretion ([11]; pigs, retained in muscle as balenine): not quantitatively excreted in urine
3-methylhistidine excreted into urine ([11]; swine, of 3-methylhistidine from muscle metabolism): less than 2%
